Source: US20260053812A1, “METHODS OF TREATING HYPERTENSION WITH A COMBINATION OF AN ALDOSTERONE SYNTHASE INHIBITOR AND A DIURETIC” (Mineralys Therapeutics, Inc., priority 2022, published 2026)

Assay: Adverse events (TEAEs, SAEs, AESI; Safety Analysis Set)
Source text: In analyses performed on the Safety Analysis Set, subjects will be analyzed according to their actual treatment received.

## CC(=O)N[C@H]1CC[C@H](NC(=O)CN2CCN(c3nncc(-c4ccc(C)cc4)n3)CC2)CC1 [Compound A HBr]
Part 1, 100 mg QD (N = 30)
  On-treatment TEAE, Hyperkalaemia, Mild, %: (26.7) %
  On-treatment TEAE, Infections and infestations, %: (6.7) %
  On-treatment TEAE, Infections and infestations, Moderate, %: (6.7) %
  On-treatment TEAE, Investigations, %: (26.7) %
  On-treatment TEAE, Investigations, Mild, %: (20.0) %
  On-treatment TEAE, Investigations, Moderate, %: (6.7) %
  On-treatment TEAE, Metabolism and nutrition disorders, %: (26.7) %
  On-treatment TEAE, Metabolism and nutrition disorders, Mild, %: (26.7) %
  On-treatment TEAE, Psychiatric disorders, %: (6.7) %
  On-treatment TEAE, Psychiatric disorders, Moderate, %: (6.7) %
  On-treatment TEAE, Urinary tract infection, %: (3.3) %
  On-treatment TEAE, Vascular disorders, %: (3.3) %
  On-treatment TEAE, Vascular disorders, Moderate, %: (3.3) %
  Subjects with any On-treatment TEAEs leading to withdrawal from study drug, %: (13.3) %
  Subjects with any On-treatment TEAEs, Mild, %: (30.0) %
  Subjects with any On-treatment TEAEs, Moderate, %: (23.3) %
  TEAE leading to permanent discontinuation from study drug, Activated partial thromboplastin time prolonged, %: (3.3) %
  TEAE leading to permanent discontinuation from study drug, Hyperkalaemia, %: (6.7) %
  TEAE leading to permanent discontinuation from study drug, Hypotension, %: (3.3) %
  TEAE leading to permanent discontinuation from study drug, Investigations, %: (3.3) %
  TEAE leading to permanent discontinuation from study drug, Metabolism and nutrition disorders, %: (6.7) %
  TEAE leading to permanent discontinuation from study drug, Vascular disorders, %: (3.3) %
Part 1, Active (N = 133)
  On-treatment TEAE, Blood and lymphatic system disorders, %: (1.5) %
  On-treatment TEAE, Blood and lymphatic system disorders, Mild, %: (1.5) %
  On-treatment TEAE, Blood creatinine increased, %: (2.3) %
  On-treatment TEAE, Blood creatinine increased, Mild, %: (2.3) %
  On-treatment TEAE, Cardiac disorders, %: (3.0) %
  On-treatment TEAE, Cortisol decreased, %: (2.3) %
  On-treatment TEAE, Cortisol decreased, Mild, %: (2.3) %
  On-treatment TEAE, Dizziness, %: (2.3) %
  On-treatment TEAE, Gastrointestinal disorders, %: (4.5) %
  On-treatment TEAE, Gastrointestinal disorders, Mild, %: (3.8) %
  On-treatment TEAE, General disorders and administration site conditions, %: (3.8) %
  On-treatment TEAE, General disorders and administration site conditions, Mild, %: (1.5) %
  On-treatment TEAE, Glomerular filtration rate decreased, %: (6.8) %
  On-treatment TEAE, Glomerular filtration rate decreased, Mild, %: (6.0) %
  On-treatment TEAE, Headache, %: (2.3) %
  On-treatment TEAE, Headache, Mild, %: (2.3) %
  On-treatment TEAE, Hyperkalaemia, %: (23.3) %
  On-treatment TEAE, Hyperkalaemia, Mild, %: (19.5) %
  On-treatment TEAE, Hyperkalaemia, Moderate, %: (3.0) %
  On-treatment TEAE, Hyperkalaemia, Severe, %: (0.8) %
  On-treatment TEAE, Hypertension, %: (3.8) %
  On-treatment TEAE, Hypertension, Moderate, %: (2.3) %
  On-treatment TEAE, Infections and infestations, %: (8.3) %
  On-treatment TEAE, Infections and infestations, Mild, %: (3.8) %
  On-treatment TEAE, Infections and infestations, Moderate, %: (4.5) %
  On-treatment TEAE, Investigations, %: (15.8) %
  On-treatment TEAE, Investigations, Mild, %: (12.8) %
  On-treatment TEAE, Investigations, Moderate, %: (3.0) %
  On-treatment TEAE, Metabolism and nutrition disorders, %: (25.6) %
  On-treatment TEAE, Metabolism and nutrition disorders, Mild, %: (21.8) %
  On-treatment TEAE, Metabolism and nutrition disorders, Moderate, %: (3.0) %
  On-treatment TEAE, Nervous system disorders, %: (6.0) %
  On-treatment TEAE, Nervous system disorders, Mild, %: (4.5) %
  On-treatment TEAE, Orthostatic hypotension, %: (2.3) %
  On-treatment TEAE, Orthostatic hypotension, Mild, %: (2.3) %
  On-treatment TEAE, Psychiatric disorders, %: (2.3) %
  On-treatment TEAE, Psychiatric disorders, Moderate, %: (2.3) %
  On-treatment TEAE, Urinary tract infection, %: (5.3) %
  On-treatment TEAE, Urinary tract infection, Mild, %: (3.0) %
  On-treatment TEAE, Vascular disorders, %: (6.8) %
  On-treatment TEAE, Vascular disorders, Mild, %: (3.8) %
  On-treatment TEAE, Vascular disorders, Moderate, %: (3.0) %
  Subjects with any On-treatment TEAEs leading to withdrawal from study drug, %: (7.5) %
  Subjects with any On-treatment TEAEs, Mild, %: (35.3) %
  Subjects with any On-treatment TEAEs, Moderate, %: (18.8) %
  Subjects with any On-treatment TEAEs, Severe, %: (0.8) %
  TEAE leading to permanent discontinuation from study drug, Activated partial thromboplastin time prolonged, %: (0.8) %
  TEAE leading to permanent discontinuation from study drug, Cardiac disorders, %: (0.8) %
  TEAE leading to permanent discontinuation from study drug, Coronary artery disease, %: (0.8) %
  TEAE leading to permanent discontinuation from study drug, Dizziness, %: (0.8) %
  TEAE leading to permanent discontinuation from study drug, Hyperkalaemia, %: (3.8) %
  TEAE leading to permanent discontinuation from study drug, Hypertension, %: (0.8) %
  TEAE leading to permanent discontinuation from study drug, Hypotension, %: (0.8) %
  TEAE leading to permanent discontinuation from study drug, Investigations, %: (0.8) %
  TEAE leading to permanent discontinuation from study drug, Metabolism and nutrition disorders, %: (3.8) %
  TEAE leading to permanent discontinuation from study drug, Nervous system disorders, %: (0.8) %
  TEAE leading to permanent discontinuation from study drug, Orthostatic hypotension, %: (0.8) %
